What was measured:
[1] = cited from earlier work
[2] = target: Gi2 (Homo sapiens, UniProt P04899); settings: reconstituted Gi2, in vitro; read-out: EC50, activation of GTPase; cited from earlier work
[3] = test system: cytoplasmic Ca2+ in S. cerevisiae cells (FY70 [pEVP11/AEQ]); assay: Aequorin luminescence, yeast cytoplasmic Ca2+; format: cell-based, Saccharomyces cerevisiae; settings: 50 μM added at t=30 sec, monitored […]; further: monitored 3.5 min
Method: Cells were transformed with pEVP11/AEQ, which constitutively expresses apoaequorin directed to the cytoplasm (Batiza et al., 1996) Transformed cells were grown to mid-exponential phase in SD-leu to maintain the plasmid. 1.5×10^7 cells were pelleted and resuspended in fresh SD-leu medium containing 5.9 μM coelenterazine for 1 hour to allow the cofactor to diffuse into cells and bind the apoaequorin. Cells were pelleted again and resuspended in fresh SD-leu (“SD” buffer) and 2.5×10^6 cells per well aliquoted to a microtiter plate for luminescence measurement. Luminescence was measured in an EG&G Berthold luminometer using Winglow monitoring and analysis software.
S. cerevisiae cells were prepared for aequorin assays as just described.

[4] = test system: HL-60 cells; settings: in the presence but not in the absence of extracellular Ca2+; cited from earlier work
[5] = during chronic treatment; cited from earlier work

Chain of Gi2 (P04899 2-355 limits assumed): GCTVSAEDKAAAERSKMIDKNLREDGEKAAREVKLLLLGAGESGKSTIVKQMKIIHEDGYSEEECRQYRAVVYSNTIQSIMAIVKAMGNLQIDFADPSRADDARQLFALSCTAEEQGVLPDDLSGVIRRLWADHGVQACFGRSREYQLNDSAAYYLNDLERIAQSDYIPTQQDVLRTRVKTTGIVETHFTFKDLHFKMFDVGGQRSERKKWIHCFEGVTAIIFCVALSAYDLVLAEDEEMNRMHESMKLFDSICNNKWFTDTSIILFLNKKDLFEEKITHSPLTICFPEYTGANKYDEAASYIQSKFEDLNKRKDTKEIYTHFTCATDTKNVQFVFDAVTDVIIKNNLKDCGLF

Compound	ataxia, patients affected ([1]; especially during loading doses)	pulmonary fibrosis or pneumonitis fatal, cases ([1]; human, in vivo)	EC50 [2] [µM]	increase in RLUs (cytoplasmic Ca2+) [3]	increase in RLUs (cytoplasmic Ca2+) ([3]; listed as amiodarone)	cytosolic Ca2+ concentration [4]	plasma ratio of metabolite to parent compound [5]
CCCCc1oc2ccccc2c1C(=O)c1cc(I)c(OCCN(CC)CC)c(I)c1 [Amiodarone, amiodarone]	20-40%	about 10%	50	immediate and very large increase	immediate and huge increase	increased	
CCCCc1oc2ccccc2c1C(=O)c1cc(I)c(OCCNCC)c(I)c1 [desethylamiodarone]							approximately one

Source: patent publication US20090270496A1, “ANTIFUNGAL COMPOUNDS” (priority 2007, published 2009)
